According to BindingDB's records for PubMed 2885412 (Unwersity of Misscuri, 1987):
Several values for one entry are separate records, joined by “and”; a condition that tells them apart may be missing. Equal values may be shown once.

Target: T1, Alpha-1A adrenergic receptor (Canis lupus familiaris, UniProt O77621)
T1 sequence (O77621 whole entry): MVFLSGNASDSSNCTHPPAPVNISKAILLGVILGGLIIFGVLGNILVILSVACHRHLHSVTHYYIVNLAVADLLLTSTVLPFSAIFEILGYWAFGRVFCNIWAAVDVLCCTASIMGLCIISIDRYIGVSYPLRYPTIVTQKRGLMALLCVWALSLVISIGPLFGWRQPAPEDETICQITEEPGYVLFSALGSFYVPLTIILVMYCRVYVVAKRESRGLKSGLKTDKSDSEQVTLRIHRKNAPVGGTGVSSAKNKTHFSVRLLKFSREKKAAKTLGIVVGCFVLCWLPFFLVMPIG

Ki | SMILES
33 nM and 9 nM | Cc1cc(C(C)(C)C)c(O)c(C)c1CC1=NCCN1 [SMR000059324]
2.55 nM and 1.27 nM | Cc1ccc(N(CC2=NCCN2)c2cccc(O)c2)cc1 [SMR000059054]

Further lines, the compound ahead of its results:

SMILES | Ki
NCC(O)c1ccc(O)c(O)c1 (stereo not drawn) [Noradrenaline,(+)] | 178 nM and 67 nM
CNC[C@H](O)c1cccc(O)c1 [PHENYLEPHRINE] | 901 nM and 213 nM
COc1cc2nc(N3CCN(C(=O)c4ccco4)CC3)nc(N)c2cc1OC [[3H]-Minipress] | 0.02 nM and 0.01 nM
Clc1cccc(Cl)c1N=C1NCCN1 [2-(2,6-dichloroanilino)-2-imidazoline] | 37 nM
COC(=O)[C@@H]1[C@H]2C[C@H]3c4[nH]c5ccccc5c4CCN3C[C@@H]2CC[C@@H]1O [yohimbic acid methyl ester] | 32 nM and 13.4 nM
CNCC(O)c1ccc(O)c(O)c1 (stereo not drawn) [EPINEPHRINE] | 110 nM and 30 nM
